Assay results: article PMC4289617 (Journal of medicinal chemistry, 2010)
Peptide text beside a SMILES is read from it.

Biological target: WDR5 (Homo sapiens, UniProt P61964)
Test: FP-based competitive binding assay
Conditions: for times increase in binding affinity upon N-terminal acetylation: acetylated vs free amino group peptide; for binding to WDR5: up to the concentrations tested; for times less potent than Ac-3mer: compared to Ac-3mer (Ac-ARA-NH2)

CC(=O)N[C@@H](C)C(=O)N[C@@H](CCCNC(=N)N)C(=O)N[C@@H](C)C(=O)N[C@@H](CCC(=O)O)C(=O)N[C@H](C(=O)N[C@@H](Cc1c[nH]cn1)C(=O)N[C@@H](CC(C)C)C(=O)N[C@@H](CCCNC(=N)N)C(=O)N[C@@H](CCCCN)C(=O)N[C@@H](CO)C(N)=O)C(C)C [Ac-10mer]
times more potent than the WIN peptide (Ki ratio vs WIN peptide): 50

CC(=O)N[C@@H](C)C(=O)N[C@@H](CCCNC(=N)N)C(=O)N[C@H](C(N)=O)[C@@H](C)O [Ac-H3-3mer, Ac-ART-NH2] (Ac-Ala-Arg-Thr-NH2)
times increase in binding affinity upon N-terminal acetylation: 1500
times more potent than Ac-ARA-NH2 (compared to Ac-ARA-NH2): 6

CC(=O)N[C@@H](C)C(=O)N[C@@H](CCCNC(=N)N)C(=O)N[C@H](C(=O)N[C@@H](CCCCN)C(=O)N[C@@H](CCC(N)=O)C(=O)N[C@H](C(=O)N[C@@H](C)C(=O)N[C@@H](CCCNC(=N)N)C(=O)N[C@@H](CCCCN)C(=O)N[C@@H](CO)C(N)=O)[C@@H](C)O)[C@@H](C)O [Ac-H3-10mer]
times increase in binding affinity upon N-terminal acetylation: > 10000

C[C@H](N)C(=O)N[C@@H](CCCNC(=N)N)C(=O)N[C@@H](C)C(N)=O [H2N-3mer, H2N-ARA-NH2] (H-Ala-Arg-Ala-NH2)
binding to WDR5: does not bind to WDR5

CC(=O)N[C@@H](C)C(=O)N[C@@H](CCCNC(=N)N)C(=O)N(C)[C@@H](C)C(N)=O [Δ1, Ac-AR-(N-Me)A-NH2]
binding to WDR5: complete loss of its binding to WDR5

CC(=O)N[C@@H](C)C(=O)N[C@@H](CCCNC(=N)N)C(=O)N[C@@H](C)C(=O)N(C)C [Δ2b, Ac-ARA-CONMe2] (Ac-Ala-Arg-Ala-NMe2)
times less potent than Ac-3mer: 50

COC(=O)[C@H](C)NC(=O)[C@H](CCCNC(=N)N)NC(=O)[C@H](C)NC(C)=O [Δ2c, Ac-ARA-COOCH3] (Ac-Ala-Arg-Ala-OMe)
times less potent than Ac-3mer: 10

Ac-ARAEVHL-NH2 (N-terminus and C-terminus assumed) [Ac-7mer]
fold decrease in binding affinity vs Ac-10mer (compared to Ac-10mer): 10

Ac-ARTKQTA-NH2 [Ac-H3-7mer, Ac-ARTKQTA]
times increase in binding affinity upon N-terminal acetylation: > 10000
